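The concentration for 50% growth inhibition is given as GI50. TGI denotes the concentration required for complete inhibition of growth.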 Residues, ends and D or L forms follow the SMILES beside them. *: point of attachment. Cbz = O=C(OCc1ccccc1)*
Assays:
Assay in all cases: inhibition of tumour cell growth, NCI panel, 384-well format
HCT-15 colon = system: HCT-15 colon
CCRF-CEM leukemia = system: CCRF-CEM leukemia
SF-268 CNS = system: SF-268 CNS
SW-620 colon = system: SW-620 colon
SF-539 CNS = system: SF-539 CNS
SN12C renal = system: SN12C renal
NCI-H522 lung = system: NCI-H522 lung
786-0 renal = system: 786-0 renal
SF-295 CNS = system: SF-295 CNS
OVCAR-4 ovarian = system: OVCAR-4 ovarian
MDA-MB-435 melanoma = system: MDA-MB-435 melanoma
KM12 colon = system: KM12 colon
LOX IMVI melanoma = system: LOX IMVI melanoma
RPMI-8226 leukemia = system: RPMI-8226 leukemia
SK-MEL-2 melanoma = system: SK-MEL-2 melanoma
ACHN renal = system: ACHN renal
NCI-H460 NSCLC = system: NCI-H460 NSCLC
DU-145 prostate = system: DU-145 prostate
MDA-MB-468 breast = system: MDA-MB-468 breast
EKVX NSCLC = system: EKVX NSCLC
BT-549 breast = system: BT-549 breast
MALME-3M melanoma = system: MALME-3M melanoma
SK-MEL-28 melanoma = system: SK-MEL-28 melanoma
OVCAR-5 ovarian = system: OVCAR-5 ovarian
NCI-H23 lung = system: NCI-H23 lung
SR leukemia = system: SR leukemia
RXF 393 renal = system: RXF 393 renal
OVCAR-8 ovarian = system: OVCAR-8 ovarian
IGROV1 ovarian = system: IGROV1 ovarian
T-47D breast = system: T-47D breast
UO-31 renal = system: UO-31 renal
TK-10 renal = system: TK-10 renal
HOP-62 NSCLC = system: HOP-62 NSCLC
A549 NSCLC = system: A549 NSCLC
HOP-92 NSCLC = system: HOP-92 NSCLC
PC-3 prostate = system: PC-3 prostate
SNB-75 CNS = system: SNB-75 CNS
HL-60(TB) leukemia = system: HL-60(TB) leukemia
OVCAR-3 ovarian = system: OVCAR-3 ovarian
HS 578T breast = system: HS 578T breast
NCI-H226 lung = system: NCI-H226 lung
NCI-H322M lung = system: NCI-H322M lung
K-562 leukemia = system: K-562 leukemia
U251 glioblastoma = system: U251 glioblastoma
SNB-19 CNS = system: SNB-19 CNS
MCF7 breast = system: MCF7 breast
HCT-116 colon = system: HCT-116 colon

CC(C)C[C@@H](C=O)NC(=O)[C@H](CC(C)C)NC(=O)[C@H](CC(C)C)NC(=O)OCc1ccccc1 (Cbz-Leu-Leu-Leu-aldehyde)
GI50 (HCT-15 colon): 194 nM
TGI (HCT-15 colon): 362 nM
GI50 (CCRF-CEM leukemia): 114 nM
TGI (CCRF-CEM leukemia): 239 nM
GI50 (SF-268 CNS): 166 nM
TGI (SF-268 CNS): 313 nM
GI50 (SW-620 colon): 138 nM
TGI (SW-620 colon): 275 nM
GI50 (SF-539 CNS): 167 nM
TGI (SF-539 CNS): 307 nM
GI50 (SN12C renal): 177 nM
TGI (SN12C renal): 355 nM
GI50 (NCI-H522 lung): 85.8 nM
TGI (NCI-H522 lung): 225 nM
GI50 ([…]-0 renal): 180 nM
TGI (786-0 renal): 361 nM
GI50 (SF-295 CNS): 192 nM
TGI (SF-295 CNS): 385 nM
GI50 (OVCAR-4 ovarian): 174 nM
TGI (OVCAR-4 ovarian): 324 nM
GI50 (MDA-MB-435 melanoma): 176 nM
TGI (MDA-MB-435 melanoma): 321 nM
GI50 (KM12 colon): 178 nM
TGI (KM12 colon): 326 nM
GI50 (LOX IMVI melanoma): 158 nM
TGI (LOX IMVI melanoma): 298 nM
GI50 (RPMI-8226 leukemia): 30.1 nM
TGI (RPMI-8226 leukemia): 70.2 nM
GI50 (SK-MEL-2 melanoma): 134 nM
TGI (SK-MEL-2 melanoma): 268 nM
GI50 (ACHN renal): 202 nM
TGI (ACHN renal): 425 nM
GI50 (NCI-H460 NSCLC): 200 nM
TGI (NCI-H460 NSCLC): 380 nM
GI50 (DU-145 prostate): 212 nM
TGI (DU-145 prostate): 506 nM
GI50 (MDA-MB-468 breast): 126 nM
TGI (MDA-MB-468 breast): 253 nM
GI50 (EKVX NSCLC): 222 nM
TGI (EKVX NSCLC): 534 nM
GI50 (BT-549 breast): 164 nM
TGI (BT-549 breast): 305 nM
GI50 (MALME-3M melanoma): 155 nM
TGI (MALME-3M melanoma): 291 nM
GI50 (SK-MEL-28 melanoma): 142 nM
TGI (SK-MEL-28 melanoma): 280 nM
GI50 (OVCAR-5 ovarian): 213 nM
TGI (OVCAR-5 ovarian): 440 nM
GI50 (NCI-H23 lung): 163 nM
TGI (NCI-H23 lung): 310 nM
GI50 (SR leukemia): 24.7 nM
TGI (SR leukemia): 98 nM
GI50 (RXF 393 renal): 149 nM
TGI (RXF 393 renal): 283 nM
GI50 (OVCAR-8 ovarian): 164 nM
TGI (OVCAR-8 ovarian): 313 nM
GI50 (IGROV1 ovarian): 184 nM
TGI (IGROV1 ovarian): 358 nM
GI50 (T-47D breast): 169 nM
TGI (T-47D breast): 319 nM
GI50 (UO-31 renal): 179 nM
TGI (UO-31 renal): 324 nM
GI50 (TK-10 renal): 195 nM
TGI (TK-10 renal): 417 nM
GI50 (HOP-62 NSCLC): 180 nM
TGI (HOP-62 NSCLC): 339 nM
GI50 (A549 NSCLC): 427 nM
TGI (A549 NSCLC): 1690 nM
GI50 (HOP-92 NSCLC): 179 nM
TGI (HOP-92 NSCLC): 328 nM
GI50 (PC-3 prostate): 177 nM
TGI (PC-3 prostate): 325 nM
GI50 (SNB-75 CNS): 185 nM
TGI (SNB-75 CNS): 351 nM
GI50 (HL-60(TB) leukemia): 171 nM
TGI (HL-60(TB) leukemia): 311 nM
GI50 (OVCAR-3 ovarian): 94 nM
TGI (OVCAR-3 ovarian): 225 nM
GI50 (HS 578T breast): 121 nM
TGI (HS 578T breast): 246 nM
GI50 (NCI-H226 lung): 188 nM
TGI (NCI-H226 lung): 372 nM
GI50 (NCI-H322M lung): 361 nM
TGI (NCI-H322M lung): 1290 nM
GI50 (K-562 leukemia): 176 nM
TGI (K-562 leukemia): 334 nM
GI50 (U251 glioblastoma): 211 nM
TGI (U251 glioblastoma): 407 nM
GI50 (SNB-19 CNS): 161 nM
TGI (SNB-19 CNS): 340 nM
GI50 (MCF7 breast): 99.1 nM
TGI (MCF7 breast): 603 nM
GI50 (HCT-116 colon): 146 nM
TGI (HCT-116 colon): 296 nM

Cc1[nH]nc2ncc(C(=O)N3CCC[C@H]3c3ccc(Cl)cc3)cc12
GI50 (HCT-15 colon): > 78600 nM
TGI (HCT-15 colon): > 100000 nM
GI50 (CCRF-CEM leukemia): 15600 nM
TGI (CCRF-CEM leukemia): 30600 nM
GI50 (SF-268 CNS): > 100000 nM
TGI (SF-268 CNS): > 100000 nM
GI50 (SW-620 colon): 30900 nM
TGI (SW-620 colon): > 79600 nM
GI50 (SF-539 CNS): > 91400 nM
TGI (SF-539 CNS): > 100000 nM
GI50 (SN12C renal): > 100000 nM
TGI (SN12C renal): > 100000 nM
GI50 (NCI-H522 lung): 21300 nM
TGI (NCI-H522 lung): > 100000 nM
GI50 ([…]-0 renal): 52800 nM
TGI (786-0 renal): > 100000 nM
GI50 (SF-295 CNS): 55200 nM
TGI (SF-295 CNS): > 100000 nM
GI50 (OVCAR-4 ovarian): > 100000 nM
TGI (OVCAR-4 ovarian): > 100000 nM
GI50 (MDA-MB-435 melanoma): > 100000 nM
TGI (MDA-MB-435 melanoma): > 100000 nM
GI50 (KM12 colon): 31500 nM
TGI (KM12 colon): > 85100 nM
GI50 (LOX IMVI melanoma): 60600 nM
TGI (LOX IMVI melanoma): > 100000 nM
GI50 (RPMI-8226 leukemia): 54500 nM
TGI (RPMI-8226 leukemia): > 100000 nM
GI50 (SK-MEL-2 melanoma): 25300 nM
TGI (SK-MEL-2 melanoma): 77500 nM
GI50 (ACHN renal): 22100 nM
TGI (ACHN renal): 62000 nM
GI50 (NCI-H460 NSCLC): 60400 nM
TGI (NCI-H460 NSCLC): > 100000 nM
GI50 (DU-145 prostate): > 100000 nM
TGI (DU-145 prostate): > 100000 nM
GI50 (MDA-MB-468 breast): 21200 nM
TGI (MDA-MB-468 breast): 68500 nM
GI50 (EKVX NSCLC): > 100000 nM
TGI (EKVX NSCLC): > 100000 nM
GI50 (BT-549 breast): 57700 nM
TGI (BT-549 breast): > 100000 nM
GI50 (MALME-3M melanoma): > 100000 nM
TGI (MALME-3M melanoma): > 100000 nM
GI50 (SK-MEL-28 melanoma): > 100000 nM
TGI (SK-MEL-28 melanoma): > 100000 nM
GI50 (OVCAR-5 ovarian): > 100000 nM
TGI (OVCAR-5 ovarian): > 100000 nM
GI50 (NCI-H23 lung): 36600 nM
TGI (NCI-H23 lung): > 100000 nM
GI50 (SR leukemia): 11700 nM
TGI (SR leukemia): 25000 nM
GI50 (RXF 393 renal): 19700 nM
TGI (RXF 393 renal): 46700 nM
GI50 (OVCAR-8 ovarian): > 100000 nM
TGI (OVCAR-8 ovarian): > 100000 nM
GI50 (IGROV1 ovarian): 44700 nM
TGI (IGROV1 ovarian): > 100000 nM
GI50 (T-47D breast): 68200 nM
TGI (T-47D breast): > 100000 nM
GI50 (UO-31 renal): 46600 nM
TGI (UO-31 renal): > 100000 nM
GI50 (TK-10 renal): 80600 nM
TGI (TK-10 renal): > 100000 nM
GI50 (HOP-62 NSCLC): > 54900 nM
TGI (HOP-62 NSCLC): > 100000 nM
GI50 (A549 NSCLC): > 100000 nM
TGI (A549 NSCLC): > 100000 nM
GI50 (HOP-92 NSCLC): > 55600 nM
TGI (HOP-92 NSCLC): > 89700 nM
GI50 (PC-3 prostate): 48900 nM
TGI (PC-3 prostate): > 100000 nM
GI50 (SNB-75 CNS): > 78100 nM
TGI (SNB-75 CNS): > 100000 nM
GI50 (HL-60(TB) leukemia): 19700 nM
TGI (HL-60(TB) leukemia): 34300 nM
GI50 (OVCAR-3 ovarian): 26100 nM
TGI (OVCAR-3 ovarian): 99800 nM
GI50 (HS 578T breast): 41400 nM
TGI (HS 578T breast): > 100000 nM
GI50 (NCI-H226 lung): 39100 nM
TGI (NCI-H226 lung): > 100000 nM
GI50 (NCI-H322M lung): > 100000 nM
TGI (NCI-H322M lung): > 100000 nM
GI50 (K-562 leukemia): 20900 nM
TGI (K-562 leukemia): 44100 nM
GI50 (U251 glioblastoma): 51700 nM
TGI (U251 glioblastoma): > 100000 nM
GI50 (SNB-19 CNS): > 100000 nM
TGI (SNB-19 CNS): > 100000 nM
GI50 (MCF7 breast): 31800 nM
TGI (MCF7 breast): > 100000 nM
GI50 (HCT-116 colon): 37200 nM
TGI (HCT-116 colon): > 100000 nM
